Experiments:
[1] = tested on: PC3 (prostate); experiment: In vitro cytotoxic activity MTT assay, PC3; type: cell-based; conditions: Homo sapiens, PC-3; PC3 cells, exposed for 96 hours, 50% inhibition of cell proliferation; read-out: Cytotoxicity activity IC50, PC3 (prostate)
Protocol: (§1) Compounds 1-16 were screened for their in vitro cytotoxic activity utilizing a 3-(4,5-dimethyl-thiazol-2-yl)-2,5-diphenyltetrazolium bromide (MTT) assay against selected cancer human cell lines consisting of PC3 (prostate), HCT116 (colon), A375 (melanoma), H1299 (lung), MIAPaCa-2 (pancreas), HL60 (leukemia), MCF7 (breast), MDA-MB-231 (breast) (T. Mosmann, J. Immunol. Meth., 1983, 65, 55-63). The cells were cultured at 37° C. in RMPI1640 medium supplemented with 10% fetal bovine serum, 50 IU/mL penicillin, and 50 μg/mL streptomycin in a 5% CO2 incubator. All cells were sub-cultured 3 times/week by trypsinisation. Viable cells were seeded and allowed to adhere for 12 hours before a test drug was added in 96-well plates at an initial density of 1.0×10^5 cells/mL. Tumor cell lines were separately exposed to various concentrations of the tested compounds followed by incubation at a temperature of 37° C. during 96 hours inside a medium of fresh RMPI 1640. Cells were subsequently incubated at 37° C. using MTT at 0.5 mg/mL during 4 hours. After removal of supernatant, formazan crystals were dissolved in isopropanol and the optical density was measured at 570 nm. CX-4945 was used as a positive control.

[2] = tested on: HCT116 (colon); experiment: In vitro cytotoxic activity MTT assay, HCT116; type: cell-based; conditions: Homo sapiens, HCT-116; HCT116 cells, exposed for 96 hours, 50% inhibition of cell proliferation; read-out: Cytotoxicity activity IC50, HCT116 (colon)
Protocol: as §1

[3] = tested on: A375 (melanoma); experiment: In vitro cytotoxic activity MTT assay, A375; type: cell-based; conditions: Homo sapiens, A-375; A375 cells, exposed for 96 hours, 50% inhibition of cell proliferation; read-out: Cytotoxicity activity IC50, A375 (melanoma)
Protocol: as §1

[4] = tested on: H1299 (lung); experiment: In vitro cytotoxic activity MTT assay, H1299; type: cell-based; conditions: Homo sapiens, NCI-H1299; H1299 cells, exposed for 96 hours, 50% inhibition of cell proliferation; read-out: Cytotoxicity activity IC50, H1299 (lung)
Protocol: as §1

[5] = tested on: MIAPaCa-2 (pancreas); experiment: In vitro cytotoxic activity MTT assay, MIAPaCa-2; type: cell-based; conditions: Homo sapiens, MIA PaCa-2; MIAPaCa-2 cells, exposed for 96 hours, 50% inhibition of cell proliferation; read-out: Cytotoxicity activity IC50, MIAPaCa-2 (pancreas)
Protocol: as §1

[6] = tested on: HL60 (leukemia); experiment: In vitro cytotoxic activity MTT assay, HL60; type: cell-based; conditions: Homo sapiens, HL-60; HL60 cells, exposed for 96 hours, 50% inhibition of cell proliferation; read-out: Cytotoxicity activity IC50, HL60 (leukemia)
Protocol: as §1

[7] = tested on: MCF7 (breast); experiment: In vitro cytotoxic activity MTT assay, MCF7; type: cell-based; conditions: Homo sapiens; MCF7 cells, exposed for 96 hours, 50% inhibition of cell proliferation; read-out: Cytotoxicity activity IC50, MCF7 (breast)
Protocol: as §1

[8] = tested on: MDA-MB-231 (breast); experiment: In vitro cytotoxic activity MTT assay, MDA-MB-231; type: cell-based; conditions: Homo sapiens; MDA-MB-231 cells, exposed for 96 hours, 50% inhibition of cell proliferation; read-out: Cytotoxicity activity IC50, MDA-MB-231 (breast)
Protocol: as §1

[9] = molecular target: T1, recombinant human CK2 (RRββ-holoenzyme) (Homo sapiens, UniProt P68400); experiment: CK2 Kinase Assay (33P-ATP, filter plate); type: biochemical; conditions: recombinant human CK2, final ATP 15 μM, 10 min at 30° C.; read-out: protein kinase CK2 IC50
T1 construct: purchased Millipore
T1 sequence (P68400 whole entry): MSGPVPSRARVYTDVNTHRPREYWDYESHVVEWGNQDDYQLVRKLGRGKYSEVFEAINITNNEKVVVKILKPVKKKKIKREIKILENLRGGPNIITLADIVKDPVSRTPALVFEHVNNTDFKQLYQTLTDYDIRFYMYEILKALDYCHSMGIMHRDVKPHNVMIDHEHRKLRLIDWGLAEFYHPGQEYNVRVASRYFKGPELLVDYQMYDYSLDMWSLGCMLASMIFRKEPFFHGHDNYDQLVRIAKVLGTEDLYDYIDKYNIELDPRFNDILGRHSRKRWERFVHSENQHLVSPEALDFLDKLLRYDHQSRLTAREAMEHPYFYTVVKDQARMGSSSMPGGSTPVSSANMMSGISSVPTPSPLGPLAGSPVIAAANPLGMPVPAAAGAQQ
T1 sequence (P67870 whole entry partner): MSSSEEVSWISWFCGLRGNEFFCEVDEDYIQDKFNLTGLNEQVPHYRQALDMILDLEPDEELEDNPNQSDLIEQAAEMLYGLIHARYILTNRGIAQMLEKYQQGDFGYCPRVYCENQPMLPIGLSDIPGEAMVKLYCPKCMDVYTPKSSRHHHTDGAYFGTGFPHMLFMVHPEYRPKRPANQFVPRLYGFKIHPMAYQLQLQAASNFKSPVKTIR
Protocol: CK2 Kinase Assay was conducted using the protocol as described in Pierre F. et al; J. Med. Chem. 2011, 54, 635-654. The tested compounds in aqueous solution were added at a volume of 10 μL to a reaction mixture comprising 10 μL of assay dilution buffer (ADB; 20 mM MOPS, pH 7.2, 25 mM β-glycerol phosphate, 5 mM EGTA, 1 mM sodium orthovanadate, and 1 mM dithiothreitol), 10 μL of substrate peptide (RRRDDDSDDD, dissolved in ADB at a concentration of 1 mM), 10 μL of recombinant human CK2 (RRββ-holoenzyme, 25 ng dissolved in ADB; Millipore). Reactions were initiated by the addition of 10 μL of ATP solution (90% 75 mMMgCl2, 75 μM ATP (final ATP concentration:15 μM) dissolved in ADB; 10% [γ-33P] ATP (stock 1mCi/100 μL; 3000 Ci/mmol (Perkin-Elmer) and maintained for 10 min at 30° C. The reactions were quenched with 100 μL of 0.75% phosphoric acid and then transferred to and filtered through a phosphor cellulose filter plate (Millipore). After washing each well five times with 0.75% phosphoric acid, the plate was dried under vacuum for 5 min and, following the addition of 15 μL of scintillation fluid to each well, the residual radioactivity was measured using a Wallac […]. The IC50 values were derived from eight concentrations of test inhibitors.

IC50 [9]: 31 nM
SMILES: O=C(O)c1n[nH]c2c1nc(Nc1cccc(Cl)c1)c1ccncc12 [Compound 1, 5-((3-chlorophenyl)amino)-1H-pyrazolo[4,3-c][2,6]naphthyridine-3-carboxylic acid]
IC50 [1]: 1800 nM
IC50 [2]: 1900 nM
IC50 [3]: 4300 nM
IC50 [4]: 2200 nM
IC50 [5]: 900 nM
IC50 [6]: 3000 nM
IC50 [7]: 4900 nM
IC50 [8]: 4100 nM

From US11981676B1, “Pyrazolo[4,3-c][2,6]naphthyridines as CK2 inhibitors” (KING FAISAL UNIVERSITY, priority 2024, dated 2024)
